Like-named read-outs stand apart in the source and are kept apart here.
Key:
LCK kinase domain = target: T1, LCK kinase domain (Homo sapiens, UniProt P06239); assay: In vitro kinase assay (HITHUNTER), LCK; assay type: biochemical; details: Table 2
T1 construct: The kinase domains of BTK, LCK and ERK were expressed as recombinant purified proteins; made in house
Description: (§1) Similarly, commercially available reagents such as HITHUNTER™ were used to evaluate the effect of compounds on the activity of additional kinases. The kinase domains of BTK, LCK and ERK were expressed as recombinant purified proteins were used for these studies.

ITK kinase domain = target: T2, ITK kinase domain (Homo sapiens, UniProt Q08881); assay: In vitro kinase assay (HITHUNTER enzyme fragment complementation), ITK; assay type: biochemical
T2 construct: N-terminally His-tagged ITK kinase domain (amino acids 352-617); His (N); made in house
T2 sequence (Q08881 352-617): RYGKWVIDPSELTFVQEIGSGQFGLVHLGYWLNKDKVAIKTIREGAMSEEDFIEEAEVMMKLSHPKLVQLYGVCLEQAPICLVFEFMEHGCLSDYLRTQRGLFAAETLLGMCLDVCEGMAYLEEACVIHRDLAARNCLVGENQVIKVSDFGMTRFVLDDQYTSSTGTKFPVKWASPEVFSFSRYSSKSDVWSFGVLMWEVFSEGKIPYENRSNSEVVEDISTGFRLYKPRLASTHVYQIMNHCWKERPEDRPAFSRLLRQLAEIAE
Experimental: Compounds were screened using the HITHUNTER™ enzyme fragment complementation method (Discoverx). Briefly, a recombinantly produced, N-terminally His-tagged ITK kinase domain (amino acids 352-617) was incubated with various concentrations of individual compounds. ATP and substrate were added, and the kinase reaction was allowed to proceed for 2-16 hours. Commercially available detection reagents were added and allowed to react for 2-4 hours. The reaction was evaluated by luminescence. Initial results were confirmed using full-length recombinant ITK protein.
(§2) In order to confirm the mechanism by which compounds depicted herein interact with the kinase domain of Tec and EGFR kinases, we created a point mutant of the ITK kinase domain, whereby the key amino acid, namely C442 was mutated to alanine. The protein was expressed in a commercial baculovirus expression system using the manufacturer's general protocol (Invitrogen, pBlueBac). Protein was expressed and purified using standard techniques. […] While the activity of WT-ITK was inhibited by compounds depicted in this application, the same compounds had no activity towards the C442A mutant kinase domain.

BTK kinase domain = target: T3, BTK kinase domain (Homo sapiens, UniProt Q06187); assay: In vitro kinase assay (HITHUNTER), BTK; assay type: biochemical
T3 construct: The kinase domains of BTK, LCK and ERK were expressed as recombinant purified proteins; made in house
T3 sequence (Q06187 402-655 limits assumed): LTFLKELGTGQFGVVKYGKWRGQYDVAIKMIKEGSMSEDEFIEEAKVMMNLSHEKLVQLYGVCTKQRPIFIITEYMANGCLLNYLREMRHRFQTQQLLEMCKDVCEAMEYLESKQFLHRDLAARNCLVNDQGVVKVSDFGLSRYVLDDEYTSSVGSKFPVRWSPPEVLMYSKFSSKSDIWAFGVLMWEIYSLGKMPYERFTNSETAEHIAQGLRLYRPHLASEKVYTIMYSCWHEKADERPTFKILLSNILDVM
Description: as §1

[1] = test system: T cell leukemia/lymphoma cells; assay: Mouse in vivo tumor model, peritoneal lavage and FACS analysis; design: species or system NOD/SCID mice; details: ip, intraperitoneal, relative to mock group treated with vehicle, read-out: % inhibition tumor growth
Experimental: Several representative compounds were evaluated for efficacy in mouse in vivo tumor models. NOD/SCID mice were implanted intraperitoneally with T cell leukemia/lymphoma cells. One group was treated with vehicle alone (mock treatment) while the other groups were treated with several small molecule inhibitors via intraperitoneal route. Tumor growth was evaluated by peritoneal lavage and FACS analysis. Table 6 summarizes percent inhibition of tumor growth relative to a mock group treated with vehicle alone.

C442A-ITK kinase domain = target: T4, C442A-ITK kinase domain (Homo sapiens, UniProt Q08881, C442A); assay: In vitro kinase assay, C442A point mutant of ITK kinase domain; assay type: biochemical; details: Table 8
T4 construct: we created a point mutant of the ITK kinase domain; made in house; host or cells: baculovirus expression system (Invitrogen, pBlueBac)
T4 sequence (Q08881 363-615 C442A limits assumed): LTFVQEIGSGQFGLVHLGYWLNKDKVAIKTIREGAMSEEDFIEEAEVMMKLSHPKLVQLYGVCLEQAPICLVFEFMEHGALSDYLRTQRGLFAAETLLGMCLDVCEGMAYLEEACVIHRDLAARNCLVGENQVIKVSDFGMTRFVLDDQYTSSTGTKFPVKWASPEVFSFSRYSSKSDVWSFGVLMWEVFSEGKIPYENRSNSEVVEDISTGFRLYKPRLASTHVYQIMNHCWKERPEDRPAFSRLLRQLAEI
Description: as §2

[2] = Table 8, wild type ITK kinase domain, read-out: IC50 wild-type ITK

T1 sequence (P06239 245-498 limits assumed, species assumed): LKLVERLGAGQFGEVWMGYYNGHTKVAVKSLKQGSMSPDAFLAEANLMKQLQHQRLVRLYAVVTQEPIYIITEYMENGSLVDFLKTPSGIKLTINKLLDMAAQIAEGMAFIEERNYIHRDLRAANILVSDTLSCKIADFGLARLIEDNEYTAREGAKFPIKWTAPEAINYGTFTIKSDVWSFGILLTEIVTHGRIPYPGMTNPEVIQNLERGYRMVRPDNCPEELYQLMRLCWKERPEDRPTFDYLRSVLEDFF

Structure (SMILES) | IC50 (LCK kinase domain) | IC50 (ITK kinase domain; Table 2, read-out: IC50 ITK) | IC50 (BTK kinase domain; Table 2) | further results
O=C(CCN1CCOCC1)c1ccc2c(c1)OCCO2 | 20800 nM | 96 nM | 1540 nM | –
COc1ccc(C(=O)CCN2CCOCC2)cc1OC [drawing 124] | 23900 nM | 14 nM | 1840 nM | –
O=C(CCN1CCOCC1)c1ccc2ccccc2c1 [drawing 129] | 20000 nM | 36 nM | 39 nM | –
O=C(CCN1CCOCC1)c1ccc(F)c(F)c1 | 33100 nM | 208 nM | 2890 nM | –
CN(C)C1CCN(CCC(=O)c2ccc3c(c2)NC(=O)CO3)C1 (centres unmarked) | – | – | – | inhibition in vivo at 100 mg/kg [1]: 99%
COc1ccc(C(=O)CCN2CCC(N(C)C)CC2)cc1OC | – | – | – | inhibition in vivo at 80 mg/kg [1]: 81 to 95%
O=C(CCN1CCOCC1)c1ccc(-c2ccccc2)cc1 | 8040 nM | 40.2 nM | 36.9 nM | –
CCOc1ccccc1C(=O)CCN1CCOCC1 | 705000 nM | 1280 nM | 556 nM | –
O=C(CCN1CCOCC1)c1cccc2ccccc12 | 23200 nM | 65 nM | 398 nM | –
N#Cc1cccc(C(=O)CCN2CCOCC2)c1 | 413000 nM | 29 nM | 643 nM | –
O=C(CCN1CCOCC1)c1ccc(-c2cccnc2)cc1 | – | – | – | inhibition in vivo at 100 mg/kg [1]: 99%
CN(C)C1CCN(CCC(=O)c2ccc3ccccc3c2)C1 (centres unmarked) [drawing 257] | – | – | – | IC50 (ITK kinase domain; [2]): 11 nM; IC50 (C442A-ITK kinase domain): > 10000 nM
O=C(CCN1CCOCC1)c1ccccc1C(F)(F)F | – | 569 nM | 1020 nM | IC50 LCK (LCK kinase domain): NO IC50
COc1ccc(C(=O)CCN2CCOCC2)c(OC)c1 | 21100 nM | 345 nM | 3140 nM | –
O=C(CCN1CCOCC1)c1ccc(N2CCOCC2)cc1 | 27100 nM | 1410 nM | 4140 nM | –
O=C(CCN1CCOCC1)c1ccc(F)cc1 [drawing 243] | – | – | – | inhibition in vivo at 80 mg/kg [1]: 50 to 80%
O=C(CCN1CCOCC1)c1cc(F)ccc1F | – | 874 nM | 2580 nM | IC50 LCK (LCK kinase domain): NO IC50
O=C(CCN1CCOCC1)c1ccc(OC(F)(F)F)cc1 | – | 219 nM | 1310 nM | IC50 LCK (LCK kinase domain): NO IC50
CS(=O)(=O)c1ccc(C(=O)CCN2CCOCC2)cc1 | 23900 nM | 385 nM | 753 nM | –
CN(CCC(=O)C1=CC2NCC(=O)OC2C=C1)Cc1ccc(F)cc1 (centres unmarked) | – | – | – | inhibition in vivo at 80 mg/kg [1]: 90 to 99%
O=C(CCN1CCOCC1)c1cccc(Oc2ccccc2)c1 | 18500 nM | 207 nM | 94.1 nM | –
COc1cc2c(cc1OC)CN(CCC(=O)c1ccc3c(c1)NC(=O)CO3)CC2 [drawing 249] | – | – | – | inhibition in vivo at 80 mg/kg [1]: 97 to 99%
COc1cc(OC)cc(C(=O)CCN2CCOCC2)c1 | 12600 nM | 5 nM | 425 nM | –
O=C1COc2ccc(C(=O)CCN3CCOCC3)cc2N1 [drawing 253] | – | – | – | inhibition in vivo at 20 mg/kg ([1]; 20 mg/kg): 40%

Structure (SMILES) | IC50 (LCK kinase domain) | IC50 (ITK kinase domain; Table 2, read-out: IC50 ITK) | IC50 (BTK kinase domain; Table 2) | further results
O=C(CCN1CCOCC1)c1ccccc1Cl [drawing 149] | – | – | – | IC50 LCK (LCK kinase domain): NO IC50
COc1cccc(C(=O)CCN2CCOCC2)c1 | 16400 nM | 35 nM | 942 nM | –
O=C(CCN1CCOCC1)c1ccc(Cl)c(Cl)c1 | 34100 nM | 13 nM | 102 nM | –
N#Cc1ccc(C(=O)CCN2CCOCC2)cc1 | – | 72 nM | 737 nM | IC50 LCK (LCK kinase domain): NO IC50
O=C(CCN1CCOCC1)c1cccc(F)c1 | 32600 nM | 381 nM | 3030 nM | –
O=C(CCN1CCOCC1)c1ccc2occc2c1 [drawing 246] | – | – | – | inhibition in vivo at 80 mg/kg [1]: 67 to 81%
Cc1ccc(C(=O)CCN2CCOCC2)cc1C | 21200 nM | 223 nM | 1480 nM | –
CN(C)C1CCN(CCC(=O)c2ccc3ccccc3c2)C1 (centres unmarked) [drawing 240] | – | – | – | inhibition in vivo at 100 mg/kg [1]: 70 to 90%
O=C(CCN1CCOCC1)c1cc2ccccc2cn1 [drawing 247] | – | – | – | inhibition in vivo at 80 mg/kg [1]: 92 to 99%
O=C(CCN1CCOCC1)c1ccc(F)cc1 [drawing 122] | 27700 nM | 13 nM | 1410 nM | –
CN(C)C1CCN(CCC(=O)C2=CC3NCC(=O)OC3C=C2)CC1 (centres unmarked) | – | – | – | inhibition in vivo at 80 mg/kg [1]: 99%
O=C(CCN1CCOCC1)c1ccc(Cl)cc1 | 25900 nM | 290 nM | 682 nM | –
Cc1ccccc1C(=O)CCN1CCOCC1 | – | 611 nM | 2310 nM | IC50 LCK (LCK kinase domain): NO IC50
O=C(CCN1CCOCC1)c1ccc(Oc2ccccc2)cc1 | 18500 nM | 91 nM | 94.1 nM | –
O=C(CCN1CCOCC1)c1ccc(F)cc1C(F)(F)F | – | 468 nM | 1220 nM | IC50 LCK (LCK kinase domain): NO IC50
O=C(CCN1CCOCC1)c1ccc(F)cc1 [drawing 258] | – | – | – | IC50 (ITK kinase domain; [2]): 49.6 nM; IC50 (C442A-ITK kinase domain): > 10000 nM
NC(=O)c1ccc2cc(C(=O)CCN3CCOCC3)ccc2c1 [drawing 259] | – | – | – | IC50 (ITK kinase domain; [2]): 11.1 nM; IC50 (C442A-ITK kinase domain): > 10000 nM
O=C1COc2ccc(C(=O)CCN3CCOCC3)cc2N1 [drawing 120] | 2890 nM | 40 nM | 276 nM | –
NCC1CCN(CCC(=O)c2ccc3ccccc3c2)CC1 | – | – | – | IC50 (ITK kinase domain; Table 5, read-out: IC50 ITK): 86 nM; IC50 (BTK kinase domain; Table 5): 84 nM
NC(=O)c1ccc2cc(C(=O)CCN3CCOCC3)ccc2c1 [drawing 250] | – | – | – | inhibition in vivo at 30 mg/kg ([1]; 30 mg/kg): 99%
O=C(CCN1CCOCC1)c1ccc2ccccc2c1 [drawing 200] | – | – | – | IC50 (ITK kinase domain; Table 5, read-out: IC50 ITK): 20.5 nM; IC50 (BTK kinase domain; Table 5): 39.5 nM
COc1ccc(C(=O)CCN2CCOCC2)cc1OC [drawing 242] | – | – | – | inhibition in vivo at 80 mg/kg [1]: 92 to 99%
O=C(CCN1CCOCC1)c1ccc2ccccc2c1 [drawing 241] | – | – | – | inhibition in vivo at 100 mg/kg [1]: 85 to 98%

More lines, main results first:

IC50 (LCK kinase domain) | IC50 (ITK kinase domain; Table 2, read-out: IC50 ITK) | IC50 (BTK kinase domain; Table 2) | Structure (SMILES) | further results
164000 nM | 180 nM | 1520 nM | Cc1ccc(C(=O)CCN2CCOCC2)cc1 | –
24400 nM | 560 nM | 3070 nM | Cc1cccc(C(=O)CCN2CCOCC2)c1 | –
28000 nM | 148 nM | 774 nM | O=C(CCN1CCOCC1)c1cccc(OC(F)(F)F)c1 | –
18400 nM | 65 nM | 1240 nM | CC(=O)Nc1cccc(C(=O)CCN2CCOCC2)c1 | –
23300 nM | 385 nM | 3920 nM | O=C(CCN1CCOCC1)c1ccc2c(c1)OCO2 | –
29500 nM | 935 nM | 993 nM | O=C(CCN1CCOCC1)c1cc(F)ccc1Cl | –
20600 nM | 186 nM | 3680 nM | CN(C)c1cccc(C(=O)CCN2CCOCC2)c1 | –
28100 nM | – | – | O=C(CCN1CCOCC1)c1ccccc1Cl [drawing 133] | –
25300 nM | 385 nM | 1480 nM | Cc1ccc(C(=O)CCN2CCOCC2)c(C)c1 | –
27100 nM | 43 nM | 656 nM | O=C(CCN1CCOCC1)c1cccc(C(F)(F)F)c1 | –
– | 104 nM | 232 nM | O=C(CCN1CCOCC1)c1ccc(Br)cc1 | IC50 LCK (LCK kinase domain): NO IC50
– | 56 nM | 865 nM | O=C(CCN1CCOCC1)c1ccc(F)cc1F | IC50 LCK (LCK kinase domain): NO IC50
– | 305 nM | 741 nM | O=C(CCN1CCOCC1)c1ccccc1Br | IC50 LCK (LCK kinase domain): NO IC50
47600 nM | 77 nM | 775 nM | O=C(CCN1CCOCC1)c1cccc(Cl)c1 | –
– | 25 nM | 365 nM | O=C(CCN1CCOCC1)c1cccc(Br)c1 | IC50 LCK (LCK kinase domain): NO IC50
– | 199 nM | 474 nM | O=C(CCN1CCOCC1)c1ccc(C(F)(F)F)cc1 | IC50 LCK (LCK kinase domain): NO IC50
– | 207 nM | 80.7 nM | O=C(CCN1CCOCC1)c1c(Cl)cccc1Cl | IC50 LCK (LCK kinase domain): NO IC50
